Residues, ends and D or L forms follow the SMILES beside them.
Test system: R6/2 mice
Experiment: Survival of R6/2 and WT mice during P110 treatment
Type: in vivo, mouse
Settings: 10 P110-treated WT mice, intermittent treatment over 8 weeks
Procedure: All the experiments were in accordance with protocols approved by the Institutional Animal Care and Use Committee of Stanford University and were performed based on the National Institutes of Health Guide for the Care and Use of Laboratory Animals. Hemizygous R6/2 HD mice and their wild-type littermates (WT) were purchased from Jackson Laboratories and shipped to us at 5 weeks of age. The animals used in the P110 treatment study were implanted with a 28-day osmotic pump (Alzet, Cupertino Calif.) containing TAT47-57 carrier control peptide or P110-TAT47-57 (P110 peptide), which delivered to the mice at a rate of 3 mg/Kg/day, as described before. The first pump was implanted at 5 weeks of age and replaced once, after 4 weeks. For the intermittent treatment study, TAT or P110 were delivered as above, using a 1-week pump. After 3 weeks with no treatment, a new pump was implanted for another week of treatment, and mice were sacrificed three weeks later, at the age of 13 weeks.
The overall survival during the study period was recorded and the remaining mice were sacrificed when they reached 13 weeks. […]
The results are presented as mean±SE. Statistical analysis was assessed by unpaired Student's t test and 1-way ANOVA using GraphPad Prism (GraphPad Software, Inc, La Jolla, Calif.). […]

## CC(C)C[C@H](NC(=O)[C@H](CC(=O)O)NC(=O)CNC(=O)CNC(=O)[C@H](CCCNC(=N)N)NC(=O)[C@H](CCCNC(=N)N)NC(=O)[C@H](CCCNC(=N)N)NC(=O)[C@H](CCC(N)=O)NC(=O)[C@H](CCCNC(=N)N)NC(=O)[C@H](CCCNC(=N)N)NC(=O)[C@H](CCCCN)NC(=O)[C@H](CCCCN)NC(=O)[C@H](CCCNC(=N)N)NC(=O)CNC(=O)[C@@H](N)Cc1ccc(O)cc1)C(=O)N[C@@H](CC(C)C)C(=O)N1CCC[C@H]1C(=O)N[C@@H](CCCNC(=N)N)C(=O)NCC(=O)N[C@@H](CO)C(=O)O [P110] (H-YGRKKRRQRRRGGDLLPRGS-OH)
  death in WT mice: no death

Source: patent US20190212344A1, “BIOMARKERS FOR USE IN DETERMINING RESPONSE TO TREATMENT OF NEURODEGENERATION DISEASE” (The Board of Trustees of the Leland Stanford Junior …, priority 2016, published 2019)
